Measurements as given in patent US9783536B2, “Nitrogen-containing heterocyclic compound or salt thereof” (FUJIFILM Corporation, priority 2013, dated 2017).
Structures can show the parent of a compound that is named as a salt. Where two headings read alike, the source gives them in different places.

Tests used:
Format in all cases: biochemical
[1] = target: T1, human PI3Kα protein (Homo sapiens, UniProt P42336); test: PI3Kα enzyme assay (ADP-Glo); conditions: read-out: PI3Kα enzyme inhibitory activity
T1 construct: purchased Carna Biosciences, Inc; host or cells: baculovirus expression system
T1 sequence (P42336 whole entry): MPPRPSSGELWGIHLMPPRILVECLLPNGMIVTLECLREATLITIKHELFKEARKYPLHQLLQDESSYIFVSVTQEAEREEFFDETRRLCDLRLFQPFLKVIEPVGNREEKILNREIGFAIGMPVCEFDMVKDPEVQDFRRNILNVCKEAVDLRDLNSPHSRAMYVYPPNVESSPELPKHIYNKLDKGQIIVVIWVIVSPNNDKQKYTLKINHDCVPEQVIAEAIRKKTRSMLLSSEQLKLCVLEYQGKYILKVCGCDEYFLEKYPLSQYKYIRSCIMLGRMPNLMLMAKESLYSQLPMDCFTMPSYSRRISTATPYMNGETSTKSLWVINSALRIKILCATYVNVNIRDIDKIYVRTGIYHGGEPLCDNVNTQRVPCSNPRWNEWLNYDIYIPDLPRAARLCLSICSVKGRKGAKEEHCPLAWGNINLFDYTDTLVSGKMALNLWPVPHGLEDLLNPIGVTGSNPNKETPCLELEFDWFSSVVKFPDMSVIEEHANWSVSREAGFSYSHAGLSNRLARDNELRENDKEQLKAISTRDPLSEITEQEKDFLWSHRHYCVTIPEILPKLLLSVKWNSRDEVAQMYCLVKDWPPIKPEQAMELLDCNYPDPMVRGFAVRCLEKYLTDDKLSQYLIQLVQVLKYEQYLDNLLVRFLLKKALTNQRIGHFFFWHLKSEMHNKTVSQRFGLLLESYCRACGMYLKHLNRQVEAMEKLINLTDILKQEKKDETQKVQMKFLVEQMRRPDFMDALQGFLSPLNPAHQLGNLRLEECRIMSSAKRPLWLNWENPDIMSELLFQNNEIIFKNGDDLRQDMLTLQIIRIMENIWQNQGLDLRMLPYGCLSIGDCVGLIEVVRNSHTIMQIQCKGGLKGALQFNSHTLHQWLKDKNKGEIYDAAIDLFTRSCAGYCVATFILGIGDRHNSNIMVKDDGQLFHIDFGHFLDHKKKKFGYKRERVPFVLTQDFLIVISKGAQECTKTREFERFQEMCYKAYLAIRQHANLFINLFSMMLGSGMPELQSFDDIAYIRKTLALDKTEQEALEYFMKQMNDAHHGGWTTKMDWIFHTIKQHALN
T1 sequence (P27986 whole entry partner): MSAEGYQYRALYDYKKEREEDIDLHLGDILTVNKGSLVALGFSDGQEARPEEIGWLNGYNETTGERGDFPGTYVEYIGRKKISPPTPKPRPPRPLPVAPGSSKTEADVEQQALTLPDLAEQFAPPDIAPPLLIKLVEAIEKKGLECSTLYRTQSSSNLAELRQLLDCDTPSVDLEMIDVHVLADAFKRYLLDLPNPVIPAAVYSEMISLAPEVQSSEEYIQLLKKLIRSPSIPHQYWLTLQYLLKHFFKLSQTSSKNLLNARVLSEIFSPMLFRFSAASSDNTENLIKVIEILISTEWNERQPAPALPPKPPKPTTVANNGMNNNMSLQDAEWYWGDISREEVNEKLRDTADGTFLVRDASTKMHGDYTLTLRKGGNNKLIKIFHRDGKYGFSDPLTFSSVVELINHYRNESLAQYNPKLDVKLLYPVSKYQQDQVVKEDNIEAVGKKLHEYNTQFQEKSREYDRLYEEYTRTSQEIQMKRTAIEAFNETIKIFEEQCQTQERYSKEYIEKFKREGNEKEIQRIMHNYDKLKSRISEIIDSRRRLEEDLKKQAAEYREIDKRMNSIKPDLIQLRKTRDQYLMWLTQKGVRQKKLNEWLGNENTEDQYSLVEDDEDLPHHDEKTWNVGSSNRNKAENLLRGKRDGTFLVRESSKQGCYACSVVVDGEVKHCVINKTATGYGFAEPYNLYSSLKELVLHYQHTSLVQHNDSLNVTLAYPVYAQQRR
How it was run: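 Biotinylated human PI3Kα (baculovirus-expressed, 4.5 nmol/L) pre-incubated 15 min with compound in Tris-HCl pH 7.5, MgCl2, BSA; reaction 60 min at 25° C with 50 μmol/L PIP2 and 100 μmol/L ATP final. ADP quantified by ADP-Glo luminescence; IC50 calculated.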

[2] = target: T2, GST fusion human ERK2 protein (Homo sapiens, UniProt P28482); test: ERK2 enzyme assay (2); conditions: read-out: ERK2 enzyme inhibitory activity (2)
T2 construct: purchased Carna Biosciences, Inc; host or cells: E. coli expression system
T2 sequence (P28482 whole entry, the tested form may be a part): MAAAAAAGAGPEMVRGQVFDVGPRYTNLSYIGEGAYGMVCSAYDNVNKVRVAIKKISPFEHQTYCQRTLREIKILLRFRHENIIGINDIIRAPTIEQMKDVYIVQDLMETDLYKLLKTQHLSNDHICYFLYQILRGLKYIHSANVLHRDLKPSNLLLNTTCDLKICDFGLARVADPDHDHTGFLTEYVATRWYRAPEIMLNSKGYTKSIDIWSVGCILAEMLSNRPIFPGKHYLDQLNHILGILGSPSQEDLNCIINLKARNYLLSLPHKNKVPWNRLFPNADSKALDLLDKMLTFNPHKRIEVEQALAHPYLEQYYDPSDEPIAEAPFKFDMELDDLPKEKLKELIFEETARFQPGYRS
How it was run: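 IC50 values come from mobility-shift measurement of phosphorylated versus unphosphorylated 5-FAM peptide substrate after EDTA quench. Beforehand, compound and 1.25 nmol/L E. coli-expressed GST–human ERK2 stood 15 min at room temperature (pH 7.5), then 1 mmol/L ATP and 4.25 μmol/L substrate (final) were added for 120 min at 25 °C.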

[3] = target: T2, GST fusion human ERK2 protein; test: ERK2 enzyme assay (1); conditions: read-out: ERK2 enzyme inhibitory activity (1)
How it was run: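 IC50 derived from the proportion of phosphorylated 5-FAM peptide, separated from unphosphorylated peptide by microfluidic mobility shift. Compound was first preincubated 15 min at room temperature with 2.5 nmol/L kinase at pH 7.5, then 43.1 μmol/L ATP plus 4.25 μmol/L substrate reacted 120 min at 25 °C.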

[4] = 4.5 nmol/L PI3Kα, PIP2 50 μmol/L, ATP 100 μmol/L
[5] = 2.5 nmol/L ERK2, ATP 43.1 μmol/L

Row | IC50 [1] | IC50 ([2]; ERK2 enzyme assay (2)) | IC50 ([3]; ERK2 enzyme assay (1)) | IC50 [1, 4] | IC50 ([2]; 1.25 nmol/L ERK2, ATP 1 mmol/L) | IC50 [3, 5] | Compound
1 | < 1000 nM | < 1000 nM | < 1000 nM |  |  |  | CN1CCC(n2cc(-c3cnc4ccc(Nc5nnc(C6CCCC6)s5)nc4c3)cn2)CC1 [Example 0318, 5-cyclopentyl-N-(7-(1-(1-methylpiperidin-4-yl)-1H-pyrazol-4-yl)-1,5-naphthyridin-2-yl)-1,3,4-thiadiazole-2-amine]
2 | 1000 to 10000 nM | < 1000 nM | < 1000 nM |  |  |  | CC(C)c1cnnc(Nc2ccc3ncc(-c4cnn(CCCc5ccccc5)c4)cc3n2)c1 [Example 0372]
3 | < 1000 nM | < 1000 nM | < 1000 nM |  |  |  | c1nc2ccc(Nc3cc(N4CCCC4)cnn3)nc2cc1-c1cnn(CCCN2CCCC2)c1 [Example 0402, 7-(1-(3-(Pyrrolidin-1-yl)propyl)-1H-pyrazol-4-yl)-N-(5-(pyrrolidin-1-yl)pyridazin-3-yl)-1,5-naphthyridine-2-amine]
4 |  |  |  | < 1000 nM | < 1000 nM | < 1000 nM | COCc1nn(C)cc1-c1cnc2ccc(Nc3cc(C)cnn3)nc2c1 [Example 0161]
5 |  |  |  | < 1000 nM | 1000 to 10000 nM | < 1000 nM | Cc1cnnc(Nc2ccc3ncc(Nc4cncc(OCCN5CCOCC5)c4)cc3n2)c1 [Example 0158, N^2-(5-methylpyridazin-3-yl)-N^7-(5-(2-morpholinoethoxyl)pyridin-3-yl)-1,5-naphthyridine-2,7-diamine]
6 | < 1000 nM | < 1000 nM | < 1000 nM |  |  |  | c1cc(Cc2nnc(Nc3ccc4ncc(-c5cnn(CCCN6CCCC6)c5)cc4n3)s2)ccn1 [Example 0266]
7 |  |  |  | < 1000 nM | < 1000 nM | < 1000 nM | c1nc(CN2CCOCC2)ncc1Nc1cnc2ccc(Nc3nnc(C4CCCC4)s3)nc2c1 [Example 0116]
8 |  |  |  | < 1000 nM | < 1000 nM | < 1000 nM | c1cc(CN2CCCC2)ncc1Nc1cnc2ccc(Nc3nnc(C4CCCC4)s3)nc2c1 [Example 0086]
9 |  |  |  | < 1000 nM | < 1000 nM | < 1000 nM | CCc1nn(C)cc1-c1cnc2ccc(Nc3nnc(C(C)C)s3)nc2c1 [Example 0121]
10 |  |  |  | < 1000 nM | < 1000 nM | < 1000 nM | CCc1nnc(Nc2ccc3ncc(-c4cnn(C)c4)cc3n2)s1 [Example 0163]
11 | < 1000 nM | < 1000 nM | < 1000 nM |  |  |  | OCCCN1CCC(n2cc(-c3cnc4ccc(Nc5nnc(C6CCCC6)s5)nc4c3)cn2)CC1 [Example 0337, 3-(4-(4-(6-((5-Cyclopentyl-1,3,4-thiadiazol-2-yl)amino)-1,5-naphthyridin-3-yl)-1H-pyrazol-1-yl)piperidin-1-yl)propan-1-ol]
12 |  |  |  | < 1000 nM | < 1000 nM | < 1000 nM | COc1cncc(Nc2cnc3ccc(Nc4cc(C)cnn4)nc3c2)c1 [Example 0157, N^7-(5-methoxypyridin-3-yl)-N^2-(5-methylpyridazin-3-yl)-1,5-naphthyridine-2,7-diamine]
13 |  |  |  | < 1000 nM | < 1000 nM | < 1000 nM | c1nnc(Nc2ccc3ncc(-c4cn[nH]c4)cc3n2)s1 [Example 0032, N-(7-(1H-pyrazol-4-yl)-1,5-naphthyridin-2-yl)-1,3,4-thiadiazole-2-amine hydrochloride]
14 |  |  |  | < 1000 nM | < 1000 nM | < 1000 nM | Cc1nn(C)cc1-c1cnc2ccc(Nc3nnc(C(C)C)s3)nc2c1 [Example 0120]
15 | < 1000 nM | < 1000 nM | < 1000 nM |  |  |  | CNC(=O)CCn1cc(-c2cnc3ccc(Nc4nnc(C5CCCC5)s4)nc3c2)cn1 [Example 0342]
16 |  |  |  | < 1000 nM | 1000 to 10000 nM | < 1000 nM | CC(C)c1nnc(Nc2ccc3ncc(-c4cn(C)nc4-c4ccccc4)cc3n2)s1 [Example 0124, 5-isopropyl-N-(7-(1-methyl-3-phenyl-1H-pyrazol-4-yl)-1,5-naphthyridin-2-yl)-1,3,4-thiadiazole-2-amine]
17 | < 1000 nM | < 1000 nM | < 1000 nM |  |  |  | F[C@H]1CCN(CCCn2cc(-c3cnc4ccc(Nc5nnc(C6CCCC6)s5)nc4c3)cn2)C1 [Example 0346]
18 |  |  |  | 1000 to 10000 nM | < 1000 nM | < 1000 nM | COC1CN(c2cnc3ccc(Nc4nnc(C5CCCC5)s4)nc3c2)C1 [Example 0092]

Row | IC50 [1] | IC50 ([2]; ERK2 enzyme assay (2)) | IC50 ([3]; ERK2 enzyme assay (1)) | IC50 [1, 4] | IC50 ([2]; 1.25 nmol/L ERK2, ATP 1 mmol/L) | IC50 [3, 5] | Compound
19 | < 1000 nM | < 1000 nM | < 1000 nM |  |  |  | CS(=O)(=O)Cc1nnc(Nc2ccc3ncc(-c4cnn(CCCN5CCCC5)c4)cc3n2)s1 [Example 0258]
20 |  |  |  | < 1000 nM | < 1000 nM | < 1000 nM | Cn1cc(-c2cnc3ccc(Nc4nnc(C(C)(C)C)s4)nc3c2)cn1 [Example 0162]
21 |  |  |  | 1000 to 10000 nM | < 1000 nM | < 1000 nM | Cn1cc(-c2cnc3ccc(Nc4nnc(N5CCCC5)s4)nc3c2)cn1 [Example 0173, N-(7-(1-methyl-1H-pyrazol-4-yl)-1,5-naphthyridin-2-yl)-5-(pyrrolidin-1-yl)-1,3,4-thiadiazole-2-amine]
22 | 1000 to 10000 nM | < 1000 nM | < 1000 nM |  |  |  | CC(=O)N1CCCC1c1nnc(Nc2ccc3ncc(-c4cnn(C)c4)cc3n2)s1 (stereo not drawn) [Example 0248, 1-(2-(5-((7-(1-methyl-1H-pyrazol-4-yl)-1,5-naphthyridin-2-yl)amino)-1,3,4-thiadiazol-2-yl)pyrrolidin-1-yl)ethanone]
23 | < 1000 nM | < 1000 nM | < 1000 nM |  |  |  | OC(CN1CCCC1)Cn1cc(-c2cnc3ccc(Nc4nnc(C5CCCC5)s4)nc3c2)cn1 (stereo not drawn) [Example 0356, 1-(4-(6-((5-Cyclopentyl-1,3,4-thiadiazol-2-yl)amino)-1,5-naphthyridin-3-yl)-1H-pyrazol-1-yl)-3-(pyrrolidin-1-yl)propan-2-ol]
24 | 1000 to 10000 nM | < 1000 nM | < 1000 nM |  |  |  | CC(=O)N1CCC(c2nnc(Nc3ccc4ncc(-c5cnn(C)c5)cc4n3)s2)C1 (stereo not drawn) [Example 0253, 1-(3-(5-((7-(1-Methyl-1H-pyrazol-4-yl)-1,5-naphthyridin-2-yl)amino)-1,3,4-thiadiazol-2-yl)pyrrolidin-1-yl)ethanone]
25 | < 1000 nM | < 1000 nM | < 1000 nM |  |  |  | NC(=O)CCn1cc(-c2cnc3ccc(Nc4nnc(C5CCCC5)s4)nc3c2)cn1 [Example 0343]
26 | < 1000 nM | < 1000 nM | < 1000 nM |  |  |  | COCCn1cc(-c2cnc3ccc(Nc4cc(C(C)C)cnn4)nc3c2)cn1 [Example 0471, N-(5-isopropylpyridazin-3-yl)-7-(1-(2-methoxyethyl)-1H-pyrazol-4-yl)-1,5-naphthyridine-2-amine]
27 | 1000 to 10000 nM | < 1000 nM | < 1000 nM |  |  |  | Cn1cc(-c2cnc3ccc(Nc4nnc(C5CCCN5)s4)nc3c2)cn1 (stereo not drawn) [Example 0246, N-(7-(1-methyl-1H-pyrazol-4-yl)-1,5-naphthyridin-2-yl)-5-(pyrrolidin-2-yl)-1,3,4-thiadiazole-2-amine]
28 |  |  |  | < 1000 nM | < 1000 nM | < 1000 nM | CNS(=O)(=O)c1nnc(Nc2ccc3ncc(-c4cnn(C)c4)cc3n2)s1 [Example 0189, methyl ((5-((7-(1-methyl-1H-pyrazol-4-yl)-1,5-naphthyridin-2-yl)amino)-1,3,4-thiadiazol-2-yl)sulfonyl)amide sodium salt]
29 | < 1000 nM | < 1000 nM | < 1000 nM |  |  |  | CC(C)c1cnnc(Nc2ccc3ncc(-c4cnn(C5CCOCC5)c4)cc3n2)c1 [Example 0475, N-(5-isopropylpyridazin-3-yl)-7-(1-(tetrahydro-2H-pyran-4-yl)-1H-pyrazol-4-yl)-1,5-naphthyridine-2-amine]
30 |  |  |  | < 1000 nM | < 1000 nM | < 1000 nM | c1ncc(OCCCN2CCCC2)cc1Nc1cnc2ccc(Nc3nnc(C4CCCC4)s3)nc2c1 [Example 0087]
31 | < 1000 nM | < 1000 nM | < 1000 nM |  |  |  | FC1(F)CN(CCCn2cc(-c3cnc4ccc(Nc5nnc(C6CCCC6)s5)nc4c3)cn2)C1 [Example 0354]
32 |  |  |  | < 1000 nM | 10000 to 50000 nM | 10000 to 50000 nM | c1ccc2ncc(Nc3cnc4ccc(Nc5nnc(C6CCCC6)s5)nc4c3)cc2c1 [Example 0094]
33 | 1000 to 10000 nM | < 1000 nM | < 1000 nM |  |  |  | Cn1cc(-c2cnc3ccc(Nc4nnc(C5CCNC5)s4)nc3c2)cn1 (stereo not drawn) [Example 0251]
34 | < 1000 nM | < 1000 nM | < 1000 nM |  |  |  | CC(C)Cc1nnc(Nc2ccc3ncc(-c4cnn(CCCN5CCCC5)c4)cc3n2)s1 [Example 0265]
35 | < 1000 nM | < 1000 nM | < 1000 nM |  |  |  | c1nc2ccc(Nc3nnc(C4CCC4)s3)nc2cc1-c1cnn(CCCN2CCCC2)c1 [Example 0235]

Row | Compound | IC50 [1] | IC50 ([2]; ERK2 enzyme assay (2)) | IC50 ([3]; ERK2 enzyme assay (1)) | IC50 [1, 4] | IC50 ([2]; 1.25 nmol/L ERK2, ATP 1 mmol/L) | IC50 [3, 5]
36 | C[Si](C)(C)CCOCn1cc(-c2cnc3ccc(Nc4nncs4)nc3c2)cn1 [Example 0025, N-(7-(1-((2-(trimethylsilyl)ethoxy)methyl)-1H-pyrazol-4-yl)-1,5-naphthyridin-2-yl)-1,3,4-thiadiazole-2-amine] |  |  |  | 1000 to 10000 nM | < 1000 nM | < 1000 nM
